Experimental data reported in the NIST ThermoML archive (doi:10.1016/j.tca.2014.05.028).

Test: xn = mol fraction of the nth substance listed
Conditions: 101 kPa, Liquid; for viscosity: Falling or rolling sphere viscometry; for mass density: Vibrating tube method

CCCC[N+]1(C)CCCC1.[Br-] [1-butyl-1-methylpyrrolidinium bromide] + O
Conditions | mass density [kg/m3] | viscosity [mPa·s]
298.15 K, x1 = 0.0265 | 1049.2 | 1.64
298.15 K, x1 = 0.0561 | 1093.18 | 2.906
298.15 K, x1 = 0.0871 | 1125.96 | 4.9
298.15 K, x1 = 0.1283 | 1156.08 | 8.897
298.15 K, x1 = 0.1645 | 1174.63 | 13.84
298.15 K, x1 = 0.2074 | 1190.42 | 22.21
298.15 K, x1 = 0.2525 | 1202.66 | 36.28
298.15 K, x1 = 0.28 | 1208.32 | 44.98
298.15 K, x1 = 0.3012 | 1212.16 | 54.7
298.15 K, x1 = 0.3254 | 1215.99 | 67.64
298.15 K, x1 = 1 | 1221.19 | –
303.15 K, x1 = 0.0265 | 1047.05 | 1.444
303.15 K, x1 = 0.0561 | 1090.36 | 2.5
303.15 K, x1 = 0.0871 | 1122.7 | 4.146
303.15 K, x1 = 0.1283 | 1152.59 | 7.398
303.15 K, x1 = 0.1645 | 1171.08 | 11.27
303.15 K, x1 = 0.2074 | 1186.89 | 17.69
303.15 K, x1 = 0.2525 | 1199.19 | 27.6
303.15 K, x1 = 0.28 | 1204.89 | 34.67
303.15 K, x1 = 0.3012 | 1208.76 | 41.65
303.15 K, x1 = 0.3254 | 1212.62 | 51.14
303.15 K, x1 = 1 | 1217.27 | –
308.15 K, x1 = 0.0265 | 1044.76 | 1.24
308.15 K, x1 = 0.0561 | 1087.45 | 2.11
308.15 K, x1 = 0.0871 | 1119.39 | 3.445
308.15 K, x1 = 0.1283 | 1149.06 | 6.041
308.15 K, x1 = 0.1645 | 1167.5 | 9.049
308.15 K, x1 = 0.2074 | 1183.35 | 13.87
308.15 K, x1 = 0.2525 | 1195.71 | 21.22
308.15 K, x1 = 0.28 | 1201.45 | 26.45
308.15 K, x1 = 0.3012 | 1205.35 | 31.5
308.15 K, x1 = 0.3254 | 1209.25 | 38.4
308.15 K, x1 = 1 | 1213.38 | –
313.15 K, x1 = 0.0265 | 1042.32 | 1.099
313.15 K, x1 = 0.0561 | 1084.45 | 1.833
313.15 K, x1 = 0.0871 | 1116.03 | 2.945
313.15 K, x1 = 0.1283 | 1145.49 | 5.106
313.15 K, x1 = 0.1645 | 1163.9 | 7.53
313.15 K, x1 = 0.2074 | 1179.78 | 11.35
313.15 K, x1 = 0.2525 | 1192.21 | 17.02
313.15 K, x1 = 0.28 | 1198 | 20.97
313.15 K, x1 = 0.3012 | 1201.93 | 24.8
313.15 K, x1 = 0.3254 | 1205.87 | 30.02
313.15 K, x1 = 1 | 1209.51 | –
318.15 K, x1 = 0.0265 | 1039.75 | 0.987
318.15 K, x1 = 0.0561 | 1081.37 | 1.621
318.15 K, x1 = 0.0871 | 1112.61 | 2.579
318.15 K, x1 = 0.1283 | 1141.9 | 4.399
318.15 K, x1 = 0.1645 | 1160.28 | 6.4
318.15 K, x1 = 0.2074 | 1176.2 | 9.501
318.15 K, x1 = 0.2525 | 1188.7 | 14.03
318.15 K, x1 = 0.28 | 1194.53 | 17.12
318.15 K, x1 = 0.3012 | 1198.5 | 20.1
318.15 K, x1 = 0.3254 | 1202.48 | 24.1
318.15 K, x1 = 1 | 1205.66 | –
323.15 K, x1 = 0.0265 | 1037.05 | 0.879
323.15 K, x1 = 0.0561 | 1078.21 | 1.42
323.15 K, x1 = 0.0871 | 1109.15 | 2.234
323.15 K, x1 = 0.1283 | 1138.27 | 3.762
323.15 K, x1 = 0.1645 | 1156.64 | 5.403
323.15 K, x1 = 0.2074 | 1172.59 | 7.915
323.15 K, x1 = 0.2525 | 1185.17 | 11.49
323.15 K, x1 = 0.28 | 1191.05 | 13.89
323.15 K, x1 = 0.3012 | 1195.06 | 16.27
323.15 K, x1 = 0.3254 | 1199.08 | 19.34
323.15 K, x1 = 1 | 1201.84 | –
328.15 K, x1 = 0.0265 | 1034.23 | 0.782
328.15 K, x1 = 0.0561 | 1074.97 | 1.244
328.15 K, x1 = 0.0871 | 1105.64 | 1.935
328.15 K, x1 = 0.1283 | 1134.62 | 3.23
328.15 K, x1 = 0.1645 | 1152.97 | 4.572
328.15 K, x1 = 0.2074 | 1168.97 | 6.602
328.15 K, x1 = 0.2525 | 1181.63 | 9.462
328.15 K, x1 = 0.28 | 1187.55 | 11.38
328.15 K, x1 = 0.3012 | 1191.6 | 13.25
328.15 K, x1 = 0.3254 | 1195.67 | 15.64
328.15 K, x1 = 1 | 1198.05 | –
333.15 K, x1 = 0.0265 | 1031.32 | 0.705
333.15 K, x1 = 0.0561 | 1071.61 | 1.1
333.15 K, x1 = 0.0871 | 1102.07 | 1.701
333.15 K, x1 = 0.1283 | 1130.94 | 2.817
333.15 K, x1 = 0.1645 | 1149.27 | 3.923
333.15 K, x1 = 0.2074 | 1165.34 | 5.554
333.15 K, x1 = 0.2525 | 1178.06 | 7.969
333.15 K, x1 = 0.28 | 1184.04 | 9.48
333.15 K, x1 = 0.3012 | 1188.13 | 10.97
333.15 K, x1 = 0.3254 | 1192.25 | 12.89
333.15 K, x1 = 1 | 1194.28 | –
338.15 K, x1 = 0.0265 | 1028.4 | 0.649
338.15 K, x1 = 0.0561 | 1068.07 | 0.997
338.15 K, x1 = 0.0871 | 1098.46 | 1.536
338.15 K, x1 = 0.1283 | 1127.23 | 2.525
338.15 K, x1 = 0.1645 | 1145.56 | 3.462
338.15 K, x1 = 0.2074 | 1161.68 | 4.89
338.15 K, x1 = 0.2525 | 1174.49 | 6.876
338.15 K, x1 = 0.28 | 1180.52 | 8.118
338.15 K, x1 = 0.3012 | 1184.65 | 9.372
338.15 K, x1 = 0.3254 | 1188.82 | 10.94
338.15 K, x1 = 1 | 1190.53 | –
343.15 K, x1 = 0.0265 | 1024.59 | 0.586
343.15 K, x1 = 0.0561 | 1065.42 | 0.887
343.15 K, x1 = 0.0871 | 1094.8 | 1.366
343.15 K, x1 = 0.1283 | 1123.48 | 2.229
343.15 K, x1 = 0.1645 | 1141.82 | 3.005
343.15 K, x1 = 0.2074 | 1158 | 4.186
343.15 K, x1 = 0.2525 | 1170.9 | 5.839
343.15 K, x1 = 0.28 | 1176.99 | 6.858
343.15 K, x1 = 0.3012 | 1181.16 | 7.882
343.15 K, x1 = 0.3254 | 1185.37 | 9.135
343.15 K, x1 = 1 | 1186.8 | –
